Measured values reported in patent publication US20260234660A1, “TREATMENT OF MUSCLE RELATED DISORDERS WITH ANTI-HUMAN CACNG1 ANTIBODIES” (Regeneron Pharmaceuticals, Inc., priority 2023, published 2026).
Where a name gives a salt, the structure may show the parent alone.

Test system: human myotubes
Assay: Acetylcholine-induced calcium flux assay in human myotubes (FLIPR)
Type: cell-based
Conditions: 20 μM nicardipine, positive control for calcium blocking
Procedure: CACNG1 is the γ1 subunit of the skeletal muscle specific L-type calcium channel, (dihydropyridine receptor), though genetic deletion of CACNG1 appears to have no major impact on skeletal muscle function. To determine whether antibodies that bind CACNG1 impact muscle function, a calcium flux assay was performed on human myotubes that were incubated with CACNG1 antibodies to determine whether these antibodies affect acetylcholine-induced calcium release.
Human skeletal myoblasts (Cook Myosite, Inc.) were plated at 10,000 cells/well of a 96-well plate and were differentiated for 7 days into myotubes. On the final day of differentiation, media was replaced with 50 μL of FLIPR calcium 5 dye with probenecid (Invitrogen) and 50 uL of assay buffer (0.1% BSA-DMEM) per well. CACNG1 and isotype control antibodies were serial diluted in assay buffer and added to the cells and incubated at 37° C. in a 5% CO2 incubator for 1 hour prior to the calcium flux assay. Nicardipine hydrochloride (Sigma) was added to untreated wells to serve as a control for calcium channel blockade. After 1 hour, acetylcholine (Sigma) was added at a 20 uM final concentration to induce myotube calcium release, and plates were assayed on a FLIPR Tetra (Molecular Devices, LLC).

SMILES: COC(=O)C1=C(C)NC(C)=C(C(=O)OCCN(C)Cc2ccccc2)C1c1cccc([N+](=O)[O-])c1 (stereo not shown) [nicardipine, Nicardipine hydrochloride, reference compound]
- effect on human myotube calcium release: substantially reduced human myotube calcium release
